SMILES	melting point [°C]
COc1cc2c(c(OC)c1)C1CCC3(C)C(=O)CCC3C1CC2 (centres undefined)	132 to 133
CSc1cc(C(C)(C)C)n[nH]1	135 to 136
O=C(O)CSCCCCCCn1nc(-c2ccccc2)c(-c2ccccc2)c1-c1ccccc1	92 to 97
COc1cc2c(O)c(C(=O)O)cnc2cc1F	275
Nc1cc(OCCCl)ccc1F	42 to 43
COC(=O)c1ccc(NC(=O)[C@H](Cc2ccccc2)NC(=O)OC(C)(C)C)cc1	173 to 175
Cn1nnc2ccc(C(c3ccc(Cl)cc3)n3ccnc3)cc21 (centres undefined)	87.7
Cc1cc2c(cc1O)C(C)(C)CC1(CC(C)(C)c3cc(OCCO)c(C)cc3O1)O2 (centres undefined)	186 to 188
Cc1ccc(C=C2C3=C(C=CC2(C)C)CC(C)CN3)cc1 (centres undefined)	153
O=C(Cc1c(-c2ccccc2)c2cc(CN3CCNCC3)c(Cl)cc2oc1=O)Nc1ccc(Cl)cc1C(F)(F)F	237 to 242
N[C@@]1(C(=O)O)C[C@H](NC(=O)Nc2cccc(Cl)c2)[C@H]2[C@H](C(=O)O)[C@H]21 (relative stereo)	> 250
CCOC(=O)c1cnc2c(c(C)nn2-c2ccccc2)c1N(Cc1cccnc1)S(=O)(=O)c1ccc(OC)cc1	148 to 150
CC(=O)OC1CC2=CCC3C4CCC(C(C)CO)C4(C)CCC3C2(C)C(O)C1 (centres undefined)	121
Clc1cccnc1-c1ccc2[nH]nc(Nc3cc[nH]n3)c2c1	218 to 220
COc1cc(C(C)=O)ccc1SCCCN1CCC(c2noc3cc(F)ccc23)CC1	93 to 95
COc1c(C)c2c(c(O)c1CC=C(C)CC(C)C(=O)O)C(=O)OC2 (centres undefined)	122 to 123
CC1(COc2nc3ccccc3o2)Cn2cc([N+](=O)[O-])nc2O1 (centres undefined)	200 to 203
O=Cc1ccc(Oc2ccc(F)cc2)cc1	69 to 73
CC(C)(C)OC(=O)N[C@H]1CCN(C(=O)OCc2ccccc2)C1	124 to 125
COCCc1nc2c(N)nc3ccc(OCc4ccccc4)cc3c2n1C	192 to 194
Cc1[nH]c(=O)[nH]c(=O)c1[N+](=O)[O-]	281
CC(C)n1c(CC[C@@H]2C[C@H](CC(=O)OC(C)(C)C)OC(C)(C)O2)c(-c2ccc(F)cc2)c(-c2ccccc2)c1C(N)=O	201 to 202
CC(C)Oc1ccccc1C1(N[C@H](CO)c2ccccc2)C(=O)Nc2ccc(Cl)cc21 (some centres undefined)	193
COc1ccc(CCN2CCC(N3Cc4cc(Cl)c(S(N)(=O)=O)cc4C3=O)CC2)cc1	125 to 135

SMILES	melting point [°C]
C=Cc1cc(C2=NCCO2)ccc1OCCCCCc1cc(C)no1	116 to 117
CCCc1c(OCCCOc2ccc3c(c2CCC)OC(CCC(=O)OCC)CC3)ccc(C(C)=O)c1O (centres undefined)	68 to 70
CC(C)(C)c1cc(C(=O)Nc2cccc(OCc3cccnc3)c2)ccc1O	104 to 107
Cc1cc(Cl)cc(C(=O)NCC2CC2)c1NC(=O)c1cc(Br)nn1-c1ncccc1Cl	166 to 168
O=C(c1ccc(Cl)cc1)c1cc(C2(Nc3ccccc3)OCCO2)ccn1	102 to 103
CCOC(=O)c1cnc2nc(C)c(OCC)cc2c1Cl	> 250
COCCNC(=O)c1nc(NC(C)=O)c2cc(Cc3ccc(F)cc3)cnc2c1OCc1ccccc1	147 to 149
CN([C@H]1CC[C@H](Nc2nccc(-n3nnc4ccccc43)n2)CC1)S(C)(=O)=O	250 to 252
O=C1c2cc(F)ccc2-n2cnc(C(=O)n3ccnc3)c2[C@@H]2CCCN12	206 to 207
O=C1NC2CCC(Cc3ccc(O)cc3)CC2CC1CO (centres undefined)	126 to 128
COc1c(-c2cc3c(s2)CCC(O)C3)ccc2c(=O)c(C(=O)O)cn(C3CC3)c12 (centres undefined)	232 to 233
O=CNc1ccsc1I	100 to 107
Cc1nc(-c2ccc(Cl)cc2)oc1COC(C)(C)C(=O)O	166 to 167
O=C(Nc1ccc(F)cc1)NC1CCN(C(=O)c2ccc(C(=O)O)cc2)CC1	195 to 198
c1ccc2c(c1)nc(NC1CCCC1)c1nncn12	257 to 260
O=C(O)c1ncccc1OCc1ccc(Cl)cc1	144
Cc1nnc2n1-c1sc(Cc3ccccc3)cc1C(c1ccccc1Cl)=NC2	161 to 163
O=C(O)C1(c2ccc(CN3CCN(c4ccc(F)cc4)CC3)cc2)CC1	74 to 77
Brc1ccc(C2OCCO2)cc1	56 to 57
CC(C)=CC(=O)N[C@H]1CC[C@H](CCN2CCN(c3nccc4c3OCC4)CC2)CC1	184
c1cc2cc(N3CCOCC3)ccc2s1	127 to 132
NC(=O)Cc1ccc2ccn(C3CCN(CCc4ccc(F)cc4F)CC3)c2c1	157 to 158
CCC1C(C)=NN=C(c2ccccc2F)c2cc(OC)c(OC)cc21 (centres undefined)	86 to 88
N#Cc1ccc(N2CCc3nc4cc(Cl)ccc4c(Cl)c3C2)nc1	171 to 173

The next lines start with the values.

melting point [°C]	SMILES
158 to 159	COC1C(O)C(CO)OC1n1ccc(=O)[nH]c1=O (centres undefined)
77 to 78	C=Cc1ccc(NC(=O)C(C)C)nc1
140 to 144	Oc1ccc2c(c1)OC(CNCCCc1c[nH]c3ccc(O)cc13)CO2 (centres undefined)
196 to 198	CCC(C)(C)Nc1c(NCc2cccc(C)c2C)c(=O)c1=O
144 to 145	COc1ccc(CNC(=O)c2cc(C)ccc2N)cc1
141 to 142	CN(C)c1nc(N)c2ccccc2n1
157 to 159	O=C(Nc1cccc(F)c1)c1ccccc1O
198 to 201	COc1ccc(-c2csc(N)n2)cc1OC
78 to 82	COC(=O)CCCc1cc2cc(C(F)(F)F)ccc2n1S(=O)(=O)c1ccc2nc(C)oc2c1
52 to 54	CCCOC(C)Cc1ccc(-c2ccc(O)cc2)cc1 (single isomer, unassigned; (-))
119 to 120	C=CCCC(=O)N1C(=O)OC[C@@H]1C(C)C
103	CCOP(=O)(OCC)C(C)Oc1cc(-n2c(=O)cc(C(F)(F)F)n(C)c2=O)c(F)cc1Cl (centres undefined)
189 to 190	N#CC1=C(C#N)N=CCC=N1
187	Nc1ccc(N2CCN(c3ccccc3OCC3COC(Cn4cncn4)(c4ccc(Cl)cc4Cl)O3)CC2)cc1 (centres undefined)
202 to 215	NS(=O)(=O)c1ccc2c(c1)C(=O)C1(CCOC1=O)O2 (centres undefined)
254	CC(C)(C)c1cc(-c2n[nH]c(=S)o2)cc(C(C)(C)C)c1O
131 to 133	Cc1ccc(C(=O)c2cc(CN3CCOCC3)c(O)c(C(C)(C)C)c2)cc1
144 to 146	CCn1c2ccccc2c2c3c(ccc21)c(C=O)cn3C
188 to 190	N#CC1(c2ccccc2)CCN(C(=O)CC(c2ccccc2)(c2ccccc2)c2ccccc2)CC1
158 to 160	COc1ccccc1C(=O)Nc1ccc(N2CCOCC2)cc1C(C)=O
159 to 161	Cc1ccc(Cn2c(=O)c3c(Cl)cc(Cl)cc3n(Cc3ccccc3)c2=O)o1
175 to 178	CC(C)[C@H](NC(=O)OCc1cccnc1)C(=O)N[C@@H](Cc1ccccc1)[C@@H](O)[C@@H](O)[C@H](Cc1ccccc1)NC(=O)OC(C)(C)C
147 to 148	CCOC(=O)/C(=N\OC1CCS(=O)(=O)C1)c1csc(N)n1 (centres undefined)
84 to 85	N#Cc1ccc(Oc2ccccc2)cn1
138 to 142	O=C(O)[C@H](CCc1ccccc1)NS(=O)(=O)c1ccc2c(c1)Cc1ccccc1O2
165 to 166	O=C1C(=O)c2ccccc2C2=C1SCC1(CCN(C(=O)c3cccc(C(F)(F)F)c3)CC1)O2

melting point [°C]	SMILES
118 to 120	COC(=O)c1ccc2ccc3ccccc3c(=O)c2c1
71 to 72	NC(N)=NC(=O)Cc1c(-c2ccccc2Cl)csc1-c1ccc(OCCc2cn[nH]c2)cc1
120 to 124	COC(=O)CCc1cc2cc(Cl)ccc2n1S(=O)(=O)c1cc(OC)ccc1OC
128	O=[N+]([O-])c1c(Br)nn(Cc2ccccc2)c1Br
86 to 87	Cc1cc(C2=C(Cl)CCN(C(=O)c3ccccc3)C2)no1
224 to 225	Cc1nn(-c2ccc(F)cc2)cc1C(=O)Nc1ccc(N2CCC(O)CC2)c(C#N)c1
261 to 262	CCCn1c(=O)c2c(nn3cc(-c4ccccc4)[nH]c23)n(Cc2ccccc2)c1=O
85 to 87	OCCc1c2ccccc2cc2ccccc12
147 to 148	FC(F)(F)c1cccc(CSc2nnc(-c3ccn4ncnc4c3)o2)c1
> 300	CCNC(=O)C1CC2(NC(=O)NC2=O)c2cc(F)ccc2O1 (centres undefined)
113 to 114	CSc1ccc(C2=C(c3cccs3)C(=O)C(C)(C)O2)cc1
230 to 233	O=C(Nc1ccc(Cl)c(Cl)c1)c1ccccc1SSc1ccccc1C(=O)Nc1ccc(Cl)c(Cl)c1
95 to 96	COc1ccc2c(OCCN3CCOCC3)c(-c3ccccc3)c(=O)oc2c1
47 to 49	CCOC(=O)/C=C(C)/C=C/C=C(C)/C=C/c1c(C)cc(OC(F)(F)F)c(C)c1C
123 to 125	Brc1cnc(-c2ccccc2)c2ccccc12
187 to 188	Cc1ccccc1NC(=O)C1Sc2ccccc2N(C)C1=O (centres undefined)
129 to 130	CCOC(=O)c1cn(CC)c2c(F)c(C(C)=O)c(F)cc2c1=O
161 to 164	Nc1ccc(S(=O)c2ccc(-c3ccc(Br)cc3)cc2)cc1N (centres undefined)
176 to 178	CN1CCN(c2cc3c(cc2F)c(=O)n(O)c(=O)n3-c2cccc(F)c2)CC1
176 to 177	Cc1c(C(=O)Nc2ccc(N3CCN(CCO)CC3)c(C#N)c2)cnn1-c1cccc(Cl)c1
59 to 62	O=C(O)C(CCCc1ccccc1)NS(=O)(=O)c1ccc(N2CCC(c3ccccc3)CC2)cc1 (centres undefined)
104 to 106	CN(C)C(=O)C(C#N)=C(O)c1ccc(C(F)(F)F)cc1[N+](=O)[O-]
212 to 214	Cc1nn(-c2ccccc2)c(-c2ccccc2)c1NC(N)=S
179 to 182	COc1ccc(C2=NN(c3ccc([N+](=O)[O-])cc3)C(=O)[C@H]3CC=CC[C@@H]23)cc1OC (relative stereo)
108 to 110	O=C(O)CCNC(=O)NCCCCC1CCSS1 (centres undefined)
